Measured values from patent US20110226998A1, “ELECTROWETTING ELEMENTS” (LIQUAVISTA B.V., priority 2008, published 2011).

Experiment: Photo-bleaching test according to standard IEC 60068-2-9, Atlas Suntest CPS/XLS+ instrument, reflectance measurement
Assay type: physicochemical
Conditions: sample thickness 4 micrometres, 1 centimetre diameter, 0.1M in decane
Text: Exemplary dye compounds will now be described below, including a schematic illustration of each dye. Whilst exemplary anthraquinone dyes are given below, it is to be appreciated that corresponding napthoquinone dyes are envisaged also within the scope of the present invention, namely including napthoquinones having the same molecular structure of the right hand (as illustrated herein) benzene ring as the molecular structure of the right hand (as illustrated herein) benzene ring of the anthrquinone examples described below. The stereochemistry of each dye is not limited to that shown; it is to be appreciated that molecular structures of the dyes having different stereochemistry are within the scope of the dyes of the invention. […] For each of the exemplary dyes, data is given as evidence of their reduced photo-bleaching properties. […] The periods of time given for testing are scalable to equate to a number of weeks of exposing the tested dyes to solar radiation. For example, the period of exposure of 240 hours given below approximately equates to continuously exposing the dyes to solar radiation in London, UK, for 14 weeks, taking an average yearly solar radiation quantity as 1,000 kWh/m^2/year. In reality, taking into account that a display application is not used or is used inside for a major part of the time, this equates to a few years of practical lifetime.
This dye is cyan in colour. Upon testing, a sample of the dye with a thickness of 4 micrometres, a circular area of 1 centimetre diameter and a concentration of 0.1M in decane, was measured for reflectance of radiation with wavelengths from 380 to 750 nano-metres, at 5 nano-metre increments. This test was run separately for different time periods, namely for 0, 4, 24, 48, 120 and 240 hours. The reflectance of the dye for the range of wavelengths tested was approximately the same for each different testing time period.
This dye is purple in colour. Upon testing, a sample of the dye with a thickness of 4 micrometres, a circular area of 1 centimetre diameter and a concentration of 0.1M in decane, was measured for reflectance of radiation with wavelengths from 380 to 750 nano-metres, at 5 nano-metre increments. This test was run separately for different time periods, namely for 0, 4, 24, 48, and 120 hours. The reflectance of the dye for the range of wavelengths tested was approximately the same for each different testing time period.
This dye is magenta in colour. Upon testing, a sample of the dye with a thickness of 4 micrometres, a circular area of 1 centimetre diameter and a concentration of 0.1M in decane, was measured for reflectance of radiation with wavelengths from 380 to 750 nano-metres, at 5 nano-metre increments. This test was run separately for different time periods, namely for 0, 4, 24, 48, 120 and 240 hours. The reflectance of the dye for the range of wavelengths tested was approximately the same for each different testing time period.
This dye is blue in colour. Upon testing, a sample of the dye with a thickness of 4 micrometres, a circular area of 1 centimetre diameter and a concentration of 0.1M in decane, was measured for reflectance of radiation with wavelengths from 380 to 750 nano-metres, at 5 nano-metre increments. This test was run separately for different time periods, namely for 0, 4, 24, 48, and 120 hours. The reflectance of the dye for the range of wavelengths tested was approximately the same for each different testing time period.
This dye is blue/cyan in colour. Upon testing, a sample of the dye with a thickness of 4 micrometres, a circular area of 1 centimetre diameter and a concentration of 0.1M in decane, was measured for reflectance of radiation with wavelengths from 380 to 750 nano-metres, at 5 nano-metre increments. This test was run separately for different time periods, namely for 0, 4, 24, 48, and 120 hours. The reflectance of the dye for the range of wavelengths tested was approximately the same for each different testing time period.

[1] = exposure 0, 4, 24, 48, and 120 hours
[2] = exposure 0, 4, 24, 48, 120 and 240 hours

CCCCC(CC)CNc1cc(CC(CC)CCCC)c(O)c2c1C(=O)c1ccccc1C2=O (stereo not drawn) [Example 2]
photo-bleaching (reflectance of radiation, 380 to 750 nano-metres, compared over testing time periods) [1]: does not exhibit photo-bleaching

CCCCC(CC)CNc1ccc(NCC(CC)CCCC)c2c1C(=O)c1ccccc1C2=O (stereo not drawn) [Example 1]
photo-bleaching (reflectance of radiation, 380 to 750 nano-metres, compared over testing time periods) [2]: does not exhibit photo-bleaching

CCCCCCCc1cc(NC2CCCCC2)c2c(c1NC1CCCCC1)C(=O)c1ccccc1C2=O [Example 4]
photo-bleaching (reflectance of radiation, 380 to 750 nano-metres, compared over testing time periods) [2]: does not exhibit photo-bleaching

CCCCC(CC)CNc1cc(CC(CC)CCCC)c(N)c2c1C(=O)c1ccccc1C2=O (stereo not drawn) [Example 5]
photo-bleaching (reflectance of radiation, 380 to 750 nano-metres, compared over testing time periods) [1]: does not exhibit photo-bleaching

CCCCC(CC)CNc1cc2c(c3c1C(=O)c1ccccc1C3=O)NC1CC(C)CCC1C2(C)C (stereo not drawn) [Example 6]
photo-bleaching (reflectance of radiation, 380 to 750 nano-metres, compared over testing time periods) [1]: does not exhibit photo-bleaching

CCCCC(CC)Cc1cc(NC2CCCCC2)c2c(c1NC1CCCCC1)C(=O)c1ccccc1C2=O (stereo not drawn) [Example 3]
photo-bleaching (reflectance of radiation, 380 to 750 nano-metres, compared over testing time periods) [2]: does not exhibit photo-bleaching
